These results are taken from patent publication EP2444396A1, “PHOTOPROTECTIVE COMPOSITION” (Apoteknos Para La Piel, S.L., priority 2009, dated 2010).

A word on the solubility: it is how much of the substance goes into solution per volume.

≈ marks a conversion by molar mass, not a printed value. Marks after values point to notes of the source that are not given here.

The nature of data set [1]: UV spectrum: wavelengths of maximum absorption and absorbance (Cecil 2021 UV-Visible Spectrophotometer). In kind it is physicochemical.
The nature of data set [2]: Solubility in organic solvents. Format: physicochemical. As to conditions: methanol, organic solvent or mixture, thermodynamic from solid; MeOH.
Data set [3] in a line: Photostability evaluation (irradiation in MeOH, TLC analysis). Format: physicochemical. The settings on record: saturated solution in 200 mL MeOH, 2 hours of irradiation, isolated by column chromatography. The protocol: All the irradiations preformed in the photostability studies were carried out in an ACE 7840 photoreactor using a 450W power ACE 7825 lamp.
The solvent used in the photostability test was methanol [MeOH] (ppa) (250 mL), using a concentration of […] of p-nitrolophine. The solution was irradiated for 2 hours, samples being taken at 10 minutes, 20 minutes, 1 hour and 2 hours, and being dried in a rotating evaporator. Each sample was analyzed by thin layer chromatography (TLC in Silica gel) using petroleum ether:ethyl acetate (4:1) as eluent. The chromatography plates were viewed under a 254 nm lamp and a 366 nm lamp, as well as by means of simultaneous viewing under both lamps (254 and 366 nm).
Specifically, three photoproducts (three blots) could be determined, which were isolated by preparative TLC.
A saturated solution of m-nitrolophine in MeOH was prepared to perform the study since the solubility in this solvent is low (approximately 0.2 mg/mL). Briefly, an amount of m-nitrolophine sufficient to ensure the saturation in 200 mL of MeOH throughout the night was left stirring. The solution was filtered and irradiated for 2 hours, samples of 10 mL being taken at 10 minutes, 20 minutes, 1 hour and 2 hours, and being dried in rotating evaporator. […]

Data set [4] has as its system MCF-7 breast cancer cell line. The data set can be described thus: E-Screen cell proliferation test. In kind it is cell-based, human. The settings on record: MCF-7 cells; for Proliferative effect (PE) Mean: 144 hours, negative control = 1. From the text: The E-Screen proliferation test is based on the use of MCF-7 breast cancer cell line. The MCF-7 cells [which endogenously expressed the estrogen receptor alpha (ERα)], respond to the treatment with estradiol increasing its proliferative rate, synthesizing new proteins and transcribing certain specific genes. […] The test compares the number of cells or the cell proliferation obtained after 6 days of culture. The cells grow in culture medium supplemented with human serum lacking of estrogens, in the presence and/or absence of estradiol as well as of the chemical compounds suspected of having estrogenic activity. The E-Screen test was performed following the methodology previously described by Soto et al. ["An in culture bioassay to assess the estrogenicity of xenobiotics. […] Health Perspect. 103:844-850; 1995]. […] The assay was ended after 144 hours of subculture (exponential phase) after drawing out the medium and fixing the cells for the application of sulforhodamine-B technique. Finally, the cell growth for each experimental group is related to the growth obtained for the negative control (absence of hormone) and with respect to estradiol (positive control). Once the E-Screen test is performed, the maximum cell proliferation rate induced by the compound also known as proliferative effect (PE) was established by calculating the ratio existing between the maximum proliferation rate obtained for the compound and the proliferation rate of the negative control. The proliferation data corresponding with the successive dilutions of the compound were transformed after the application of the correction factor for the dilution of each experimental point, the arithmetic mean of the data obtained being calculated. Another parameter is the relative proliferative efficiency (RPE). […] In this assay, the estrogenicity E-Screen test commonly used to identify the hormonal activity of compounds interacting specifically with the estrogen receptor alpha (ERα), has been used. The assays were performed in triplicate for each concentration (range: 300-0.003 µg/ml) in at least three independent experiments.

In data set [5] the test system is Erythema induced by UVB radiation in mouse. The data set can be described thus: Photoprotection: erythema induced by UVB radiation in mouse skin. Format: in vivo. The settings on record: 0.5% gel topical, about 2.5 kJ/m^2 UVB, 24 hours after exposure; for % Protection: percentage of protected animals. On the set-up: key to Erythema induced by UVB radiation in mouse: presence (+); absence (-). An excerpt: The effect of p-nitrolophine and m-nitrolophine on erythema due to exposing the mouse skin to an irradiation source at maximum in the UVB region has been studied in these assays. The results obtained have been compared with the effect of 4-methylbenzylidene camphor (P5000) a substance considered as a UVB solar filter and with the effect of butyl methoxydibenzoylmethane (P1789) an UVA type filter, both products being commonly used in antisolar cosmetics.
35 male mice weighing more than 20 grams have been used. After receiving them, the animals were acclimated for 7 days at the place where the assays were preformed, they were being placed in a cage with controlled temperature (22°C), with relative humidity between 50% and 75%, replacing fresh filtered air approximately 10 times per hour and with 12 h light/dark cycles (7.00 - 19.00 light and from 19.00 to 7.00 dark). For this period and during the experimental period, the animals were fed ad libitum with standard diet for rodents and running water as drink.
The animals were randomly distributed into 4 experimental groups according to Table 7. The products to be tested were directly used, applying them in the form of a gel on an area of the skin such that each animal form its own control.
The test was performed following the method described by Winder et al. ["A study of Pharmacological influences on ultraviolet erythema in guinea pigs". Arch. Int Pharmacodyn, 116:261-292; 1958] and by other authors [Wendy et al. "The local antinociceptive and topical antiinflamatory effects of propyl gallate in rodents". Br. J. Pharmacol, 58:573 -581; 1976; Katiyar et al. "Protective Effects of Silymarin Against Photocarcinogenesis in a Mouse Skin Model". J Natl Cancer Inst 89:556-65; 1997] with slight modifications. The day […] the assay, as much hair as possible were removed from the animals by applying a layer of commercial hair-removing cream to remove all the trace of hair and to leave the skin of the back completely bare. The rest of the hair-removing cream were removed by means of washing and rinsing with running water and the animals were the returned to their corresponding cages where they remained until the following day.
On the day of the assay, the substances to be assayed were blindly applied on the back of the previously labelled animals following a random pattern (randomized). After applying the corresponding treatments, the animals were placed and pinned to the presentation platform of the equipment. The animals were then placed 8 cm from an ultraviolet light source of 4*40w with 313 nm of fundamental emission and a range comprised approximately between 290 and 350 nm and with an anti-UVC filter. The emission spectrum of said light source is depicted in Figure 1.
The exposure was maintained until all the animals have received an approximate total dose of 2.5 kJ/m^2. The dose of irradiation applied was determined by means of a ultraviolet light detector, the response curve of which is shown in Figure 2.
Twenty four hours after ending the exposure, the back of the animals was photographed and they were returned to their cages. The evaluation of erythema was performed by means of a positive/negative criterion, the percentage of protected animals being obtained. The statistic significance of the difference was evaluated by means of the non-parametric Fisher Test.

A short description of data set [6]: Absorption spectrum in methanol (195 - 400 nm). In kind it is physicochemical. As to conditions: peak wavelength, 10 mg/ml. The protocol: In order to determine the absorption spectrum, a solution of 10 mg/ml of methanol was prepared from each of the substances. The methanol in turn was used to adjust the zero absorbance in each of the wavelengths in the range of 195 - 400 nm.

For data set [7], the system named is Erythema induced by UVB radiation in mouse. The data set can be described thus: Photoprotection: erythema induced by UVB radiation in mouse skin. Format: in vivo. As to conditions: intensity of erythema in application area versus surrounding non treated area (subjective criterion); 0.5% gel topical; listed as m-nitrotophine.

On to `O=[N+]([O-])c1cccc(-c2nc(-c3ccccc3)c(-c3ccccc3)[nH]2)c1` [m-nitrolophine, 2-(3-nitrophenyl)-4,5-diphenyl-1H-imidazole], for which the “UV spectrum A (a.u)” value in data set [1] (absorbance at the maximum of the same line) amounted to 1.194 a.u. In addition, the “UV spectrum λ (nm)” value in data set [1] (wavelengths of the maximum absorption) turned out to be 309.0 nm. Also, the solubility in data set [2] was ~200 µg/mL (≈ 586 µM). This molecule came in with a photodecomposition product in data set [3] of 5.7 mg. Further, the estrogenicity result in data set [4] (E-Screen, conclusion in words) is “not an estrogenic compound for the receptor alpha”. The “Proliferative effect (PE) Mean” value worked out at 1.45 in data set [4] (3x10^-1 mg/ml); 1.30 in data set [4] (3x10^-2 mg/ml); 1.19 in data set [4] (3x10^-3 mg/ml); 1.10 in data set [4] (3x10^-4 mg/ml); 1.08 in data set [4] (3x10^-5 mg/ml); 1.06 in data set [4] (3x10^-6 mg/ml). Also, the proliferative effect result in data set [4] (all the tested concentrations range (300-0.003 µg/ml)) was “lower than 1.5”. Besides, the “Erythema induced by UVB radiation in mouse” value in data set [5] (individual animals No. 1-10) is recorded as “-”. Also, the “% Protection” value in data set [5] came out at 100%; in data set [5] (listed as m-nitrotophine) it was 100%*. The maximum absorption in data set [6] was 309 nm. Also, the “% Suppression” value in data set [7] is reported as 60 - 80%*.
